Measurements: patent US6864086B2, “Nitric oxide-scavenging system for culturing oocytes, embryos, or other cells” (Board of Supervisors of Louisiana State University and …, priority 1998, dated 2005)

System: bovine embryos
Assay: Example 9: L-NAME (1 or 1000 nM) added to mBECM containing serum and Hb, pre-hatching development
Assay type: cell-based
Design: key to Least square mean of embryos developed to 16-cell / Least square mean of embryos developed to Blastocyst / Least square mean of embryos developed to 2-cell / Least square mean of embryos developed to 8-cell / Least square mean of embryos developed to Morula: fraction developed; each embryo scored 1 = developed, 0 = not developed
Settings: for Number of embryos developed to 2-cell / Number of embryos developed to 8-cell / Number of embryos developed to 16-cell / Number of embryos developed to Morula / Number of embryos developed to Blastocyst: 96 embryos; for Number of embryos developed to 2-cell / Least square mean of embryos developed to 2-cell: 48 h; for Number of embryos developed to 8-cell / Least square mean of embryos developed to 8-cell: 60 h; for Number of embryos developed to 16-cell / Least square mean of embryos developed to 16-cell: 120 h; for Number of embryos developed to Morula / Least square mean of embryos developed to Morula: 144 h; for Number of embryos developed to Blastocyst / Least square mean of embryos developed to Blastocyst: 192 h
Protocol: The basic medium used for maturation of oocytes was tissue culture medium (TCM)-199 with Earle's salts, buffered with 25 mM HEPES (Gibco BRL, Grand Island, N.Y.) and supplemented with 10% (v/v) heat-inactivated fetal bovine serum (FBS; Hyclone Laboratories, Logan, Utah), 1 μg/ml estradiol-17β (NOBL Laboratories, Sioux Center, Iowa), 3 μg/ml bovine FSH (NOBL Laboratories), 6 μg/ml bovine LH (NOBL Laboratories), and 25 μg/ml gentamycin (Sigma Chemical Co., St. Louis, Mo.). The basic medium used for treatment of spermatozoa and fertilization of oocytes was a modified Tyrode's medium (J. Parrish et al., Capacitation of bovine sperm by heparin. Biol. Reprod. 38:1171-1180 (1988)), supplemented with 0.25 mM sodium pyruvate (Gibco BRL), 6 mg/ml fatty acid (FA)-free BSA (No. A-6003, Sigma), 15 μg/ml calcium heparin from porcine intestinal mucosa (183 USP/mg; H-8398, Sigma), and 25 μg/ml gentamycin. Modified bovine embryo culture medium (mBECM) containing 10 μM β-mercaptoethanol was used for culture of embryos, as described in J. Lim et al., “Roles of growth factors in the development of bovine embryos fertilized in vitro and cultured singly in a defined medium,” Reprod. Fertil. Dev., 8:1199-1205 (1996). mBECM supplemented with 10% (v/v) FBS was used for co-culturing inseminated oocytes with CGC. Osmolarity of the medium was maintained within the range of 265-290 mOsm.
All cumulus-oocyte complexes (COC) were collected in Madison, Wis. (BOMED, Inc.) and were shipped in 2 ml of maturation medium in a battery powered incubator via overnight express mail service. Oocytes matured during transit and arrived within 24 h after exposure to maturation medium, pre-equilibrated at 39° C. in 5% CO2 in air. At 22 to 24 h after exposure to the medium, the COCs were inseminated in vitro as described in J. Lim et al., “Intracytoplasmic glutathione concentration and the role of β-mercaptoethanol in preimplantation development of bovine embryos,” Theriogenology, 46:429-439 (1996). At 18 h post-insemination, COCs were cultured in groups (28-40 embryos) in a 4-well multidish (Nunc, Roskilde, Denmark) containing 0.8-ml of mBECM. Embryos were dislodged from CGC at 36 to 48 h post-insemination.
In Example 9, IVF embryos were cultured in MBECM supplemented as follows: 1) no addition (control), 2) Hb (1 μg/ml), 3) Hb plus L-NAME (1 nM), and 4) Hb plus L-NAME (1000 nM). Embryonic development was evaluated up to 192 h post-insemination. A total of 384 oocytes were inseminated, and were randomly and equally allotted to 4 replicates.
Embryos developed to the 2-cell, 8-cell, 16-cell, morula, and blastocyst stages at the pertinent observation times were individually scored ‘1’ (developed). Embryos that had not developed to these stages at the same times were scored ‘0’ (non-developed). Sums of the scores at each stage of development were evaluated by analysis of variance using a general linear model (PROC-GLM) in the SAS statistical programming package (1991). In Example 8, the combined effects of Hb addition and month of oocyte collection were first examined in a 2×7 factorial arrangement. Overall differences in embryonic development in Hb-free and Hb-containing culture systems were further evaluated. […] Differences were regarded as statistically significant where P values were less than 0.05.

COC(=O)[C@@H](N)CCCN=C(N)N[N+](=O)[O-].Cl [L-NAME, N^G-Lω-nitro-L-arginine methyl ester hydrochloride]
Number of embryos developed to 2-cell (L-NAME 1 nM with Hb 1 μg/ml): 78 | Number of embryos developed to 8-cell (L-NAME 1 nM with Hb 1 μg/ml): 60 | Number of embryos developed to 16-cell (L-NAME 1 nM with Hb 1 μg/ml): 46 | Number of embryos developed to Morula (L-NAME 1 nM with Hb 1 μg/ml): 38 | Number of embryos developed to Blastocyst (L-NAME 1 nM with Hb 1 μg/ml): 26 | Least square mean of embryos developed to 2-cell (L-NAME 1 nM with Hb 1 μg/ml): 0.813 | Least square mean of embryos developed to 8-cell (L-NAME 1 nM with Hb 1 μg/ml): 0.625 | Least square mean of embryos developed to 16-cell (L-NAME 1 nM with Hb 1 μg/ml): 0.479 | Least square mean of embryos developed to Morula (L-NAME 1 nM with Hb 1 μg/ml): 0.396 | Least square mean of embryos developed to Blastocyst (L-NAME 1 nM with Hb 1 μg/ml): 0.271 | Number of embryos developed to 2-cell (L-NAME 1000 nM with Hb 1 μg/ml): 70 | Number of embryos developed to 8-cell (L-NAME 1000 nM with Hb 1 μg/ml): 50 | Number of embryos developed to 16-cell (L-NAME 1000 nM with Hb 1 μg/ml): 40 | Number of embryos developed to Morula (L-NAME 1000 nM with Hb 1 μg/ml): 28 | Number of embryos developed to Blastocyst (L-NAME 1000 nM with Hb 1 μg/ml): 19 | Least square mean of embryos developed to 2-cell (L-NAME 1000 nM with Hb 1 μg/ml): 0.729 | Least square mean of embryos developed to 8-cell (L-NAME 1000 nM with Hb 1 μg/ml): 0.521 | Least square mean of embryos developed to 16-cell (L-NAME 1000 nM with Hb 1 μg/ml): 0.416 | Least square mean of embryos developed to Morula (L-NAME 1000 nM with Hb 1 μg/ml): 0.292 | Least square mean of embryos developed to Blastocyst (L-NAME 1000 nM with Hb 1 μg/ml): 0.198 | further stimulation of embryonic development to the blastocyst stage (L-NAME added to culture medium containing Hb, P>0.07): did not further stimulate
